The source of these data is patent US9995734B2, “Human T cell line assay for evaluating the immunologic identity of glatiramer acetate preparations” (Mylan Inc., priority 2013, dated 2018).

For data set [1], the system named is Donor 4 COP T-cell lines (205-1D1, 205-1H7, 205-1F4). The experiment in a line: MHC DR restriction testing (ATP proliferation with autologous and partially HLA-DR matched B-LCL), Donor 4 COP T-cell lines. Format: cell-based, human. The following applies: for Proliferation with antigen-incubated B-LCL, Mean: T-cell line 205-1F4. The method, then:
MHC DR restriction testing of cell lines was carried out by measuring the proliferation response of the cell lines as described above in the presence of an array of APC selected based on the known HLA-DR loci of the original PBMC donor for the cell line tested, including autologous APC (B-LCL). The donors used are described in Table 2.
To define the MHC molecule used to present antigen to GA specific T cell lines, GA specific responses were measured in the presence of autologous APC and in the presence of APC matching one of the T cell donor's HLA-DR alleles. Therefore at least 3 APC were used in each experiment: autologous APC, APC matching DR allele 1 but not allele 2 and a third APC matching allele 2 but not allele 1. In some experiments a fourth APC B-LCL was used. A no antigen negative control was used. APC were inactivated by incubation with 50 ug/mL mitomycin C. Following inactivation, cells were washed three times to remove mitomycin C and suspended in X-VIVO 15 medium at 1×10^6 cells per mL. GA was added to the cell suspension to a final concentration of 20-60 μg/mL. The cells were incubated with antigen for 1 hour at 37° C. to allow antigen uptake and binding. The cell suspension was then centrifuged to pellet the cells and the cell pellet was washed once with medium. APC were adjusted to 2×10^5 cells per mL in X-VIVO 15 medium and added to opaque 96-well plates at 100 μL per well. T-cell suspensions of 2-4×10^5 cells per mL (unless otherwise specified) were added to the 96-well plates at 100 μL per well and the cultures incubated 4 days before measuring cell numbers using CellTiter Glo® (to evaluate proliferation).
Alternatively, APC were not pulsed. Instead, each well contained 10 ug/mL antigen, 50 μl APC and 100 μL of T cells.
After incubating for 4 days at 37° C. (5% CO2), 100 μL were removed from each well, combined with 100 μL CellTiterGlo reagent, and luminescence was measured using a Packard Fusion. Results were expressed in relative light units (RLU).
As described in the Methods, T-cell lines were tested for MHC restriction by measuring proliferation following incubation with APC. Mitomycin-treated autologous APC, and test APC, e.g., from donors having at least one HLA-DR match with the original PBMC donor were employed. The values in the data tables below are in RLU.
Donor 4 T-cell line 205-1D1 was assayed for proliferation, using autologous B-LCL, and B-LCL from Donors 1, 2, and 6 that had been incubated in the presence or absence of 60 μg/mL COP. T-cell line 205-1D1 was restimulated 5 times (not including the initial stimulation) with antigen before the MHC restriction assay was carried out. The results, shown in Table 73, indicate that 205-1D1 is restricted by HLA-DRβ1*13.
Donor 4 T-cell line 205-1H7 was assayed for proliferation, using autologous B-LCL, and B-LCL from Donors 1, 2, and 6 that had been incubated in the presence or absence of 40 μg/mL COP. T-cell line 205-1H7 was restimulated 5 times (not including the initial stimulation) with antigen before the MHC restriction assay was carried out. The results, shown in Table 74 and FIG. 14B, indicate that 205-1H7 is restricted by HLA-DRβ1*13.
Donor 4 T-cell line 205-1F4 and 205-1C4 was assayed for proliferation, using autologous B-LCL, and B-LCL from Donors 1, 2, and 6 that had been incubated in the presence or absence of 40 μg/mL COP. T-cell line 205-1F4 was restimulated 7 times (not including the initial stimulation) with antigen before the MHC restriction assay was carried out. The results, shown in Table 75, indicate that 205-1F4 is restricted by HLA-DRβ1*13.

Data set [2] relates to Donor 2 Human T-Cell Lines. The data set is described as follows: BrdU uptake proliferation assay, Donor 2 T-cell lines stimulated with GMA. It counts as cell-based. The following applies: 100 μg/mL GMA; for BrdU uptake: Day 13. How it is done:
Proliferation was evaluated by measuring ATP content using a luminescent method (CellTiter Glo Luminescent Cell Viability Assay, Promega, Madison, Wis., cat. #G7571) or by measuring BrdU uptake by ELISA (Millipore cat. #2752), in both cases following kit instructions. A split well format was used. Cells in each well were resuspended and 65 μl transferred to the wells of each of two new U-bottom 96-well plates, to generate the replicate plates. […] Therefore, all three plates received autologous APC (PBMC) treated with mitomycin C to prevent cell division. […] The latter two plates were incubated for 3 days at 37° C., 6% CO2 before adding CellTiter Glo or BrdU and measuring signal. IL-2 was added at 10 U/mL to the original 96-well plate for expansion on Day 17. For subsequent screenings, mitomycin-treated EBV-transformed autologous B-LCL (2×10^5 to 5×10^5 cells/mL) were used as APC.
PBMC were obtained from a normal, healthy, donor having MHC Class II HLA-DRβ1 04:01, 04:04 (Donor 2). […] Nine presumptive GA-specific human T-cell lines were selected for expansion and further analysis based on an increase in the OD of the GA-stimulated test sample of at least 50% relative to an unstimulated control sample.

For a further data set, the system named is GA-specific T-cell lines. It counts as cell-based, human. The settings on record: concentrations approaching and exceeding 10 μg/mL; data not shown. The method, then: GA-specific T-cell lines from Donors 1 and 3 were tested for proliferation in response to stimulation with peptide GL 14, poly (Glu-Lys 1:4).

In the case of glatiramer acetate [COP], the “Proliferation with antigen-incubated B-LCL” value in data set [1] (T-cell line 205-1D1, B-LCL Donor 1 DRβ1*04:01/DRβ1*07:01, 60 μg/mL) was 1504.7 RLU; in data set [1] (T-cell line 205-1D1, B-LCL Donor 2 DRβ1*04:01/DRβ1*04:04, 60 μg/mL), 1203.7 RLU; in data set [1] (T-cell line 205-1D1, B-LCL Donor 4 (autologous) DRβ1*07/DRβ1*13, 60 μg/mL) it was 231113.0 RLU; in data set [1] (T-cell line 205-1D1, B-LCL Donor 6 DRβ1*15:01/DRβ1*13, 60 μg/mL) it was 203780.3 RLU; in data set [1] (T-cell line 205-1H7, B-LCL Donor 1 DRβ1*04:01/DRβ1*07:01, 40 μg/mL), 8430 RLU; in data set [1] (T-cell line 205-1H7, B-LCL Donor 2 DRβ1*04:01/DRβ1*04:04, 40 μg/mL), 2065 RLU. Further, the “Proliferation with antigen-incubated B-LCL” value in data set [1] (T-cell line 205-1H7, B-LCL Donor 4 (autologous) DRβ1*07/DRβ1*13, 40 μg/mL) stood at 32418 RLU; in data set [1] (T-cell line 205-1H7, B-LCL Donor 6 DRβ1*15:01/DRβ1*13, 40 μg/mL), 30583 RLU. Besides, the “Proliferation with antigen-incubated B-LCL, Mean” value in data set [1] (APC donor 1 *04:01, *07, 40 μg/mL) is 11323 RLU; in data set [1] (APC donor 2 *04:01*04:04, 40 μg/mL), 1786 RLU; in data set [1] (APC donor 4 (autologous) *07, *13, 40 μg/mL), 84094 RLU; in data set [1] (APC donor 6 *13, *15, 40 μg/mL), 113079 RLU.

In the case of glatiramer acetate [GMA], the BrdU uptake in data set [2] (206-1A6, control 0.220) is recorded as 0.563 OD450; in data set [2] (206-1A7, control 0.329), 0.688 OD450; in data set [2] (206-1A11, control 0.151), 0.452 OD450; in data set [2] (206-1C12, control 0.272), 0.626 OD450; in data set [2] (206-1H1, control 0.109), 0.447 OD450; in data set [2] (206-1H2, control 0.095), 0.526 OD450. In addition, the BrdU uptake turned out to be 0.548 OD450 in data set [2] (206-2A1, control 0.259); 0.444 OD450 in data set [2] (206-2A10, control 0.162); 0.358 OD450 in data set [2] (206-2C3, control 0.146). In addition, the “difference in BrdU uptake from control” value in data set [2] (nine Donor 2 lines of Table 17) is “greater than two-fold”. Moreover, the “increase in the OD of the GA-stimulated test sample relative to an unstimulated control sample” value in data set [2] (nine Donor 2 lines of Table 17) was “at least 50%”.

For the substance poly (Glu-Lys; 1:4) [GL 14], the “cell death” value in the data set with GA-specific T-cell lines is recorded as “causes cell death”.
